From patent EP1433485B1, “Alpha-MSH derived peptides for treating uro-genital conditions” (MSH Pharma, Inc., priority 1999, dated 2009)
Bridge positions count the residues as written; N and C are the ends. Peptide text beside a SMILES is read from it. I, II: the chains in the order shown.

Assays:
[1] = rabbit, in vivo; cited from earlier work
[2] = test system: S. aureus (ATCC 29213); assay: S. aureus viability estimated from colonies formed; type: cell-based, Staphylococcus aureus; details: Figure 1; two hours at 37°C; significant with peptide concentrations of 10^-12 to 10^-4 M
Procedure: (§1) Cultures of S. aureus (ATCC 29213) were obtained from the collection of the Department of Microbiology, Ospedale Maggiore di Milano. […] Cells were then washed in cold distilled water and diluted with HBSS to a concentration of 100 organisms/ml. One-milliliter aliquots were dispensed on blood agar plates and incubated for 24 hours at 37°C. Viability of the microorganisms was estimated from the colonies formed. In another set of experiments, 500 units of urokinase, a S. aureus growth enhancer, were also incubated with the bacteria (10^5/100ml) for four hours at 37°C in a shaking water bath together with the peptides.

[3] = test system: C. albicans; details: for ability of C albicans to form colony: Figure 3, 10^-12 to 10^-4 M, p<0.01 vs. control; for C. albicans viability: Figure 4, procedures of Example II
Procedure: (§2) Clinical isolates of C. albicans were also obtained from the collection of the Department of Microbiology, Ospedale Maggiore di Milano. Cultures of C. albicans were maintained on Sabouraud's agar slants and periodically transferred to Sabouraud's agar plates and incubated for 48 hours at 28°C. To prepare stationary growth-phase yeast, a colony was taken from the agar plate, transferred into 30 ml of Sabouraud-dextrose broth, and incubated for 72 hours at 32°C. Cells were centrifuged at 1000xg for ten minutes, and the pellet was washed twice with distilled water. Cells were counted and suspended in Hank's balanced salt solution ("HBSS") to the desired concentration.
(§3) Cells were then washed in cold distilled water and diluted with HBSS to a concentration of 100 organisms/ml. One-milliliter aliquots were then dispensed on blood agar plates and incubated for 48 hours at 37°C. The organism's viability was estimated from the number of colonies formed.
(§4) The reactions were stopped after three minutes by the addition of ice cold ethanol. cAMP levels were measured in duplicates using a commercial enzyme immunoassay kit (Amersham, United Kingdom) after extraction-via the liquid-phase method according to the manufacturer's instructions. […] The effects of forskolin and ddAdo on the ability of C. albicans to form colonies were determined according to the procedures described in Example II.

[4] = test system: C. albicans; assay: C. albicans viability estimated from colonies formed; type: cell-based, Candida albicans; details: Figure 9; ddAdo 25, 50 and 100 x 10^-5 M for two hours, then peptide two additional hours
Procedure: as §2, §3, §4

[5] = test system: C. albicans; assay: C. albicans germ tube formation induced by horse serum; type: cell-based, Candida albicans; details: peptide 10^-6 M, 60 minutes at 37°C after horse serum induction
Procedure: C. albicans from stationary phase cultures were washed twice with distilled water and suspended in HBSS to a final concentration of 2 x 10^6/ml. Hyphal growth was induced by addition of 10% inactivated horse serum (GIBCO/ BRL, Paisley, Great Britain) to yeast incubated for 45 minutes at 37°C with continuous shaking. […] The percentage of filamentous cells was evaluated under a light microscope with the aid of a hemocytometer. Experiments were run in triplicates and at least 200 cells were scored. Photomicrographs were taken with a MC100 camera attached to an Axioskop Zeiss microscope.

[6] = test system: C. albicans; assay: killing of opsonized C. albicans by human neutrophils; type: cell-based, Candida albicans; details: Figure 6; 10^-12 to 10^-4 M; p<0.01
Procedure: Venous blood (20 ml) from healthy volunteers was anticoagulated with heparin. Neutrophils were then isolated using dextran sedimentation and centrifugation with Ficoll-Hypaque (Sigma Chemical Co., St. Louis, Missouri, USA). Erythrocytes were lysed via hypotonic shock with the resulting neutrophils representing at least 97% of the cell suspension. Cell viability; estimated by trypan blue exclusion, was greater than 98%. Neutrophils were resuspended in HBSS for the experiments. […] ID. NO. 4)or α-MSH (11-13) (SEQ. ID. […] After incubation, the culture tubes were placed on ice to stop growth, and extracellular organisms were washed twice with centrifugation at 1000-x g at 4°C. A 2.5% sodium deoxycholate solution was added to the suspension, and the tubes were shaken for five minutes. Cold distilled water was then added to obtain a suspension of 10^6 cells/ml. Two 1/100 serial dilution in HBSS were made to obtain a final suspension of 100 cells/ml. One-milliliter aliquots were then dispensed on blood agar plates and incubated for 48 hours at 37°C. Colony forming units were counted at the end of the incubation period with experiments running in triplicates and repeated using blood from five different donors.

[7] = test system: HIV-1 RNA; assay: Northern Blot analysis of HIV-1 RNA in PMA stimulated U1 cells; type: cell-based; details: Figure 12
[8] = test system: S. aureus; assay: urokinase induced growth of S. aureus; type: cell-based, Staphylococcus aureus; details: Figure 2; peptide 10^-6M; 500 units of urokinase, four hours at 37°C
Procedure: as §1

[9] = test system: C. albicans; assay: cAMP content of permeabilized C. albicans (enzyme immunoassay); type: cell-based, Candida albicans; details: Figure 7; 10^-6 M, three minutes; same order of magnitude as equimolar forskolin
Procedure: ID. NO. 4), (11-13) (SEQ. ID. NO. 1), or forskolin, an agent known to increase intracellular cAMP. The reactions were stopped after three minutes by the addition of ice cold ethanol. cAMP levels were measured in duplicates using a commercial enzyme immunoassay kit (Amersham, United Kingdom) after extraction-via the liquid-phase method according to the manufacturer's instructions.

[10] = test system: NF-κB; assay: NF-κB binding activity in nuclear extracts of U1 cells (gel shift); type: cell-based, human
Procedure: For the determination of specific bands, nuclear extracts were first incubated with 100 fold excess unlabeled probe for five minutes, before incubation with a labeled probe. […] The gels were dried and autoradiographed.

[11] = test system: HIV-1; details: Figure 11; 10^-5M; induced by IL-6, IL-10, PMA and in crowding condition
From the text: Chronically HIV-1 infected promonocytic U1 cell line is an in vitro model of latent HIV infection in monocytes. These cells carry two integrated proviral copies of HIV, and constitutive expression of HIV is very low. Viral replication, however, as measured by RNA transcription , p24 antigen, or reverse transcriptase release, can be activated with different stimuli such as TNF-α, IL-6, IL-10, PMA or crowding of cells.
Crowding was achieved by seeding U 1 cells at a density of 2x10^5/ml and maintaining them in culture at 37°C in 5% CO2 without changing media for seven days. Cultures activated with cytokines or PMA were maintained for only 48 hours. Supernatants were then removed by centrifugation and assayed for p24 antigen using commercially available ELISA kits from Cellular Products, Inc. in Buffalo, NY, USA. Reverse transcriptase releases were also measured using a commercially available kit, ELISA Retrosys RT assay from Innovagen, Lund, Sweden.

Molecule: 8-13 sequence: α-MSH 8-13 sequence (RWGKPV)
- antipyretic potency relative to the 11-13 sequence [1]: greater than that of the 11-13 sequence

Molecule: 9-13 sequence: α-MSH 9-13 sequence (WGKPV)
- antipyretic potency relative to the 11-13 sequence [1]: almost devoid of activity

Molecule: 10-13 sequence: α-MSH(11-13) with addition of glycine to form the 10-13 sequence (GKPV)
- antipyretic potency relative to the 11-13 sequence [1]: slightly decreased potency

Molecule: CC(=O)N[C@@H](CSSC[C@H](NC(C)=O)C(=O)N[C@@H](CCCCN)C(=O)N1CCC[C@H]1C(=O)N[C@H](C(N)=O)C(C)C)C(=O)N[C@@H](CCCCN)C(=O)N1CCC[C@H]1C(=O)N[C@H](C(N)=O)C(C)C [KPV dimer] (I: Ac-CKPV-NH2 / II: Ac-CKPV-NH2; disulfide I:1-II:1)
- S. aureus colony formation [2]: inhibited S. aureus colony formation
- ability of C albicans to form colony [3]: greatly reduced the ability of C albicans to form colony

Molecule: C[C@H]1O[C@@H](n2cnc3c(N)ncnc32)C[C@@H]1O [ddAdo, dideoxyadenosine]
- effect of ddAdo on the growth inhibition of C. albicans by α-MSH (1-13) and (11-13) [4]: reverse the effect

Molecule: CSCC[C@H](NC(C)=O)C(=O)N[C@@H](CCC(=O)O)C(=O)N[C@@H](Cc1c[nH]cn1)C(=O)N[C@@H](Cc1ccccc1)C(=O)N[C@@H](CCCNC(=N)N)C(=O)N[C@@H](Cc1c[nH]c2ccccc12)C(=O)NCC(N)=O [α-MSH (4-10), MEHFRWG]
- inhibition of colony forming units (CFU) ([3]; 48 h): approximately 50%

Molecule: CC(=O)N[C@@H](Cc1c[nH]cn1)C(=O)N[C@@H](Cc1ccccc1)C(=O)N[C@@H](CCCNC(=N)N)C(=O)N[C@@H](Cc1c[nH]c2ccccc12)C(=O)NCC(=O)N[C@@H](CCCCN)C(=O)N1CCC[C@H]1C(=O)N[C@H](C(N)=O)C(C)C [α-MSH (6-13)] (Ac-HFRWGKPV-NH2)
- reduction in the number of filamentous cells [5]: approximately 50%

Molecule: CC(=O)N[C@@H](CCCCN)C(=O)N1CCC[C@H]1C(=O)N[C@H](C(N)=O)C(C)C [α-MSH (11-13), KPV] (Ac-Lys-Pro-Val-NH2)
- neutrophil killing of C. albicans [6]: enhanced neutrophil killing of C. albicans
- transcription of both spliced and unspliced HIV-1 RNA [7]: inhibited
- S. aureus colony formation [2]: inhibited S. aureus colony formation
- reduction in the number of filamentous cells [5]: 54-58%
- growth enhancing effect of urokinase on S. aureus [8]: significantly countered the growth enhancing effect of urokinase
- cAMP content in the C. albicans [9]: enhanced cAMP content
- NF-κB activation ([10]; Figure 14, TNF-α (20ng/ml) stimulated U1 cells, four hours, peptide 10^-5 M): significantly reduced NF-κB activation
- NF-κB activation ([10]; resting cells): did not alter NF-κB activation
- reverse transcriptase release from U1 cells [11]: inhibited
- ability of C albicans to form colony [3]: greatly reduced the ability of C albicans to form colony
- growth of C. albicans ([3]; Figure 8, relative to control, p<0.01): significantly inhibited the growth of C. albicans

Molecule: ACTH (1-39): adrenocorticotropic hormone (1-39), prepared by solid-phase peptide synthesis (SYSMEHFRWGKPVGKKRRPVKVYPNGAEDESAEAFPLEF; Corticotropin; UniProt P01189 138-176, looked up) [reference compound]
- C. albicans viability [3]: did not reduce C. albicans viability

Molecule: ACTH (18-39): ACTH fragment (18-39) (CLIP) [reference compound]
- C. albicans viability [3]: did not reduce C. albicans viability

Molecule: [Nle^4,D-Phe^7]- α-MSH
- potency in reducing fever relative to the parent peptide [1]: approximately ten times more potent
